# Measured values taken from patent US11230711B2, “Inhibition of LET7I as a means to enhance the protective effect of progesterone against stroke” (UNIVERSITY OF NORTH TEXAS HEALTH SCIENCE CENTER, priority 2017, dated 2022).
# Columns and labels:
# C57BL/6J mice [1] = assay: Ischemic lesion / infarct size by TTC staining after middle cerebral artery occlusion (MCAo); type: in vivo, mouse
# Source text: Mice will receive bilateral ovariectomy (OVX) using a dorsal approach under isoflurane anesthesia. A small cut is made through skin and abdominal muscles in left and right lateral abdomen. The arteries to left and right ovaries will be ligated, and ovaries will be cut. The muscles and skin will be sutured with 4-0 Vicryl absorbable suture.
# Fused steroid pellets will be made using the flash-melt method described by Ratka and Simpkins. The pellets (containing P4 or control) will be implanted subcutaneously into abdominal area.
# MCAo will be used to induce transient focal cerebral ischemia (as previously described). Briefly, under isoflurane anesthesia, a mid line incision will be made on the neck. Common carotid artery (CCA), external carotid artery (ECA) and internal carotid artery (ICA) will be dissected from the connective tissue. A silicon coated 6-0 nylon monofilament will be inserted into the left ECA and advanced till it occludes the origin of MCA. The MCA will be occluded for 60 minutes and then reperfusion attained by withdrawing the suture.
# ICV injections will be performed as described by Sananbenesi et al.. In brief, mice will be anaesthetized and affixed with a cannula ipsilateral to the side of surgery (coordinates from Bregma: AP1/4_0.4 mm, L1/4_1.15 mm, V1/4_2.0 mm). […]
# C57BL/6J mice [2] = assay: Wire suspension (wire hanging) test of grip strength / motor function after MCAo; type: in vivo, mouse; settings: Example 2, FIG. 13
# Description: Animals will be trained 2 days before MCAo procedure and will be tested on day 3, 7, and 14 post stroke. Animals will be allow to suspend their bodies on a single wire stretched between 2 posts 50 cm above the ground. Between the posts, a soft pillow will be placed to avoid injury in case of a fall. Training will be achieved simply with several rounds of habituation and trials. In the actual testing phase, mice will be tested 3 times and average performance is recorded as final values.
# All mice were first ovariectomized to deplete endogenous ovarian hormone levels. Two weeks after ovariectomy (OVX), P4 pellets were subcutaneously implanted into these animals to replenish their progesterone levels. In parallel, different groups received cholesterol pellet implantations to serve as vehicle control. One week after pellet implantation, stroke was induced in these mice using middle cerebral artery occlusion (MCAo) procedure. In parallel, different groups received sham operation (non-stroke). […]
# wire suspension test: In ordered to assess motor function recovery with different treatments, wire suspension test, a test of grip strength and endurance, was used, as described elsewhere (58). […] The latency for animals to fall off the wire was recorded. […] Performances of these mice was evaluated at day 3, 7 and 14 post stroke.
# Pgrmc1 = Pgrmc1 protein in the penumbra after MCAo (Western blot); type: in vivo, mouse; settings: MCAo mice; day 7 and day 14; FIG. 11B
# Source text: (FIG. 11A) Representative immunoblots probed for Pgrmc1, pro- and mature-BDNF. (FIG. 11B) Quantitation graph of relative Pgrmc1 protein ratio to Gapdh (n=4-5 per group). (FIG. 11C) Quantitation graph of relative pro-BDNF protein ratio to Gapdh (n=4-5 per group). (FIG. 11D) Quantitation graph of relative mature BDNF protein ratio to Gapdh (n=4-5 per group). (FIG. 11E) Quantitation graph of relative let-7i expression in ischemic brain (n=4-5 per group). n.s: not significant, ** P<0.01 and *P<0.05 compared to sham, and #P<0.05 compared to P4+scrambled. Data are presented as the mean±SEM.
# Primary cortical astrocytes and mouse brains were lysed with RIPA lysis buffer containing protease and phosphatase inhibitors, as previously described (44). After homogenization, samples were centrifuged at 45,000 rpm for 30 min at 4° C. and supernatants were collected. Total protein concentrations were determined using the Bio-Rad DC protein assay kit (Bio-Rad Laboratories). Cell lysates were separated by SDS-PAGE and transferred onto polyvinylidene fluoride membrane (Bio-Rad Laboratories) by electroblotting. Membranes were blocked with 5% skim milk in tris-buffered saline containing 0.2% Tween 20 (TBS-T) for 1 h at room temperature, followed by overnight incubations of primary antibodies at 4° C. […]
# [3] = system: primary cortical astrocytes; settings: 10 nM P4; reported in reference (10); cited from earlier work
structure (smiles),measurement,setting,value
"CC(=O)[C@H]1CC[C@H]2[C@@H]3CCC4=CC(=O)CC[C@]4(C)[C@H]3CC[C@]12C [P4, progesterone]","stroke-induced lesion size (ischemic injury), TTC stain","C57BL/6J mice [1]; Example 1, MCAo mice, P4 pellet, ICV Let-7i antagomir, FIG. 6",no statistically significant effect
same,"relative infarct size (ischemic injury), TTC staining","C57BL/6J mice [1]; Example 2, 24 h after MCAo, vs cholesterol+scrambled, FIG. 12B",did not
same,motor function recovery (wire suspension test),C57BL/6J mice [2]; day 7,partial recovery
same,motor function recovery (wire suspension test),C57BL/6J mice [2]; day 14,partial recovery
same,Pgrmc1 protein level in the penumbra,Pgrmc1,did not restore
same,release of BDNF from astrocytes,[3],maximal release of BDNF
